Experimental findings from patent US20240366495A1, “COMPOSITION FOR AMELIORATING WRINKLES USING FERMENTED EXTRACT OF CANNABIS STEM AND PREPARATION METHOD THEREOF” (KOREA INSTITUTE OF SCIENCE AND TECHNOLOGY, priority 2023, published 2024) are described below.

For data set [1], the system named is human dermal fibroblasts (HDFs). The settings on record: sample 0 to 1000 μg/mL, 24 hours, MTT, FIG. 1 / FIG. 2. How it is done:
First, the cytotoxicity of each sample was confirmed using the following method. After human dermal fibroblasts (HDFs) were cultured in a 96-well culture plate at a concentration of 1.5×10^4 cells/well for 24 hours to reach a clustering coefficient of 70 to 80%, and then the sample prepared in Example 1 was treated at a concentration of 0 to 1000 μg/mL, and cultured in an incubator (37° C., 5% CO2) for an additional 24 hours. […] The absorbance of each well was measured at 570 nm using a microplate reader.

For a further data set, the system named is HDFs. Description: Observation of cell morphology changes after UVB irradiation. In kind it is cell-based, human. As to conditions: highest non-cytotoxic concentration, UVB 25 mJ/cm^2 after 2 hours, cultured 24 hours, FIG. 3. How it is done:
An experiment for confirming an anti-wrinkle effect was conducted on each sample confirmed in Example 1.

Turning to `O=C1O[C@H]([C@@H](O)CO)C(O)=C1O` [vitamin C], the “concentration at which cytotoxicity is exhibited” value in data set [1] is no less than 500 µg/mL. Besides, the “number of cells after UVB irradiation” value in the data set with HDFs is on record as “number of cells increased to the level of the untreated group”.
